Measured values from patent US20230097883A1, “ERGOTHIONEINE PET COMPOUNDS AND METHODS OF USE THEREOF” (VANDERBILT UNIVERSITY, priority 2021, published 2023).
Entries after “also recorded” stand apart in the source; their conditions may differ.

What was measured:
5XFAD mice = assay: Rotarod after ERGO treatment; format: in vivo, mouse; conditions: ERGO-treated 5XFAD versus non-treated 5XFAD and WT, three days of testing
Method: To address our primary question whether longitudinal consumption of ERGO as a potent antioxidant benefit the brain, three cohorts of animals (n=12 non-treated WT control, n=12 non-treated 5XFAD, and n=18 ERGO-treated 5XFAD) were used (FIG. 3.2A). Starting at the age of 8 weeks, the animals were treated with high doses of ERGO solution (25-50 mg/Kg) formulated in double distilled (dd) water via oral gavage three times a week over the course of eight weeks. To reduce bias in the behavioral experiments with regard to the potential stress during gavage treatment, non-treated animals underwent the identical gavage process with the vehicle, water, only. The efficacy of the therapy was evaluated by behavioral testing, followed by three different non-invasive PET imaging sessions to assess biomarkers related to AD pathology. In addition to assessing Abeta levels and glucose metabolism using the [^11C]PIB and [^18F]FDG probes, respectively; we also tested for the first time whether oxidative stress could be used as an indicator of response to therapy using the [^11C]ERGO PET radioligand. Finally, animals were euthanized, and the brains were collected for immunohistochemical analysis. […]
Neuromuscular ability and motor learning were assessed using a standard rotarod (Ugo Basile). […] Time to fall was recorded automatically when mice fell from the rod onto a base plate.

[1] = Nickel assay: 2D-HPLC with nickel HisTrap column and His-tag antibodies; format: binding
Method: In principle, nickel is a transition metal like Fe, Cu and Zn. The nickel column can immobilize hexahistidine-tag (His-tag) recombinant proteins, such as recombinant antibodies harboring a His tag (His-Abs). In our experimental design, nickel forms a substantial coordination equilibrium with histidines via the imidazole ring structures to form a stable metal/ligand complex. This assay uses two different buffer reservoirs, a wash buffer (PBS) and an elution buffer (PBS containing 50 mM imidazole). To remove the His-Abs (14 KDa) from the nickel column, the washing buffer was switched to the elution buffer and the His-Abs dislodged from the column were detected by the 2D-HPLC (FIG. 3.1C, left). In a different phase of the experiment, the His-Abs solution was spiked with ERGO (14.5 mM) prior to injection into the HPLC system. […] The integrity of the eluted His-Abs was collected and confirmed by orbit trap mass spectrometry.
ERGO's metal-binding affinity was tested via a 2D-HPLC equipped with a nickel-based HisTrap HP column (Cytiva, Marlborough, Mass., USA). The 2D-HPLC was performed with a Hitachi LaChrom Elite L-2455 Diode Array Detector linked to a Hitachi L-2130 pump (Hitachi High-Technologies, Corp., Tokyo, Japan). […]

[2] = system: neuroblastoma SH-SY5Y cells; assay: DCFH-DA ROS scavenging assay in SH-SY5Y cells; format: cell-based
Source text: We used a commercially available DCFH-DA (2′,7′-dichlorodihydrofluorescein diacetate) probe to assess the ROS scavenging power of ERGO in HeLa and neuroblastoma SH-SY5Y cells. Upon penetrating the cytoplasm, DCFH-DA is deacetylated by endogenous esterases to a non-fluorescent intermediate, followed by oxidation by free radicals. This generates a continuous and extended conjugation system, resulting in the production of highly fluorescent DCF (2′ 7′-dichlorofluorescein). In an aqueous condition, DCF has a maximal excitation and emission of 495 nm and 529 nm, respectively. Well-adhered HeLa or SH-SY5Y cells previously incubated with DCFH-DA were exposed to a commercial ROS initializer and ERGO concentrations ranging from 0-100 mM. […] Each point in the assay was measured in pentaplicate, p<0.0001.
On day 1, HeLa cells or SH-SY5Y cells were seeded into a 96-well plate with a density of 10,000 cells/mL. […] Immediately afterwards, fluorescence measurement began using a microplate reader (Biotek Industries, Agilent Technologies, Winooski, Vt., USA) with an excitation and emission wavelength of 485 nm and 528 nm, respectively. Each ERGO concentration was measured in pentaplicate.

Compound: C[N+](C)(C)[C@@H](Cc1c[nH]c(=S)[nH]1)C(=O)[O-] [ERGO, L-ergothioneine]
- rotarod latency to fall, group differences (5XFAD mice): no differences among the groups
- elution of His-tag antibodies from the nickel column in the presence of ERGO ([1]; His-Abs solution spiked with ERGO 14.5 mM, PBS wash buffer): eluted from the nickel column immediately by the wash buffer; also recorded: washed out immediately
- elution of His-tag camelid antibodies from the nickel column in the presence of ERGO ([1]; antibody injected with addition of ERGO 50 nM, PBS mobile phase): Right at the beginning of the run, His-tag camelid antibodies were eluted
- DCF fluorescence signal (ROS) ([2]; ERGO 100 mM): nearly negligible; also recorded: quenches the fluorescence totally
- DCF fluorescence signal (ROS) ([2]; ERGO starting from 5 mM): attenuates the fluorescence significantly
